Assay results from US4783530A, “8-arylxanthines” (priority 1987, dated 1988).
≈ marks a conversion by molar mass, not a printed value. Structures can show the parent of a compound that is named as a salt. Where two headings read alike, the source gives them in different places.

Columns and labels:
adenosine receptors = conditions: Daly et al. J. Med. Chem. 1985; cited from earlier work
guinea pig thymocytes = conditions: less potent than 8-phenyltheophylline; NECA-induced cyclic AMP accumulation; cited from earlier work
[1] = tested on: NECA-induced depression of force and rate of an isolated guinea pig heart; test: NECA Depressed Langendorff Heart; conditions: for IC50: guinea pig; for NECA - Depressed Langendorff Heart Force/Rate: ratio of force to rate TC50
Procedure: NECA Depressed Langendorff Heart. Hearts were rapidly excised from male guinea-pigs and transferred to a beaker containing a Krebs-bicarbonate solution at 5° C. Each heart was gently massaged to clear it of blood and clots, and the surrounding tissue was cut away. The cut aortic stump was secured to a glass cannula for retrograde perfusion of the coronary circulation.
Perfusion was at a constant rate of 5-7 ml/min, produced with a Holter peristaltic pump. […] Alterations in perfusion pressure arising from changes in coronary vascular resistance were recorded on a Gould recorder by means of Gould pressure transducers attached at a sidearm of the aortic cannula. Isometric contractions of the heart were recorded with a Grass transducer attached by a suture via a pulley to a clip on the apex of the ventricles. Rates of contraction were determined by counting heart beats.
Drugs were added directly into the perfusion solutions. Drug concentrations were changed by switching solutions. Cardiac functions were depressed with NECA or adenosine by infusing a solution of one or the other ([…]) into the perfusion solution through an injection port located immediately adjacent to the warming coil. IC50 is defined as the concentration of compound that will cause 50 percent inhibition of the NECA-induced depression of force and rate of an isolated guinea pig heart.

A2 receptor = A2 receptor (Rattus norvegicus, UniProt P30543); test: biochemical; conditions: Schild analysis; A2 receptor mediated stimulation of adenylate cyclase, PC12 membranes
A2 receptor, sequence (P30543 whole entry): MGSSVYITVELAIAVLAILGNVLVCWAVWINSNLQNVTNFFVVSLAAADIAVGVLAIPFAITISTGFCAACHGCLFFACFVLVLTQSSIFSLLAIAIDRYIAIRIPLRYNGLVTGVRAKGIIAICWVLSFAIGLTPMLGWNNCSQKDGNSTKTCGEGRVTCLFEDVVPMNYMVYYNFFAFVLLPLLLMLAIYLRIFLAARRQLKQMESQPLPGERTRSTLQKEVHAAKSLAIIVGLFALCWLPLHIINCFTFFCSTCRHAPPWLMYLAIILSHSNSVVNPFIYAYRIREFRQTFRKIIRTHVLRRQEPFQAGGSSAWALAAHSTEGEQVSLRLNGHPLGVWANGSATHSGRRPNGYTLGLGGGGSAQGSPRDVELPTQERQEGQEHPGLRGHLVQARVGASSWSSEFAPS
Procedure: The A2 receptor mediated stimulation of adenylate cyclase was measured by a modification of the procedure of Premont et al. (Molec. Pharmacol. 16: 790, 1979). Typically, pheochromocytoma cell (PC12) membranes were thawed and added to a reaction mixture containing a final concentration of 25 mM Tris-HCl, pH 7.1, 1 mM MgCl2, 50 μM ATP, 50 μM cAMP, 0.1 mM papaverine, 0.4 IU/ml adenosine deaminase, 5 mM creatine phosphate, 0.2 mg/ml creatine phosphokinase, 10 μg membrane protein, [α^32 P]ATP (μ10^-6 DPM), 5 μM GTP, and various concentrations of adenosine agonists and/or antagonists in a final volume of 100 μl. The reaction was initiated with the addition of tissue and incubated 30° C. for 20 minutes. Reactions were terminated with 100 μl of 40 mM ATP, 1.4 mM cAMP and 2% SDS. ^32 P-cAMP isolated according to the procedure to the procedure of Salomon et al. (Adv. Cyclic Nucleotide Res. 10: 35, 1979).
(§1) The Ki values for the test compounds were derived from Schild analysis as described by Tallarida et al. (Life Sciences 25: 637, 1979) in which the progressive shift in the dose response to a standard agonist was assessed using 3 concentrations of the test compound distributed over a 100-fold molar range. All incubations were performed in triplicate.

A1 receptor = biological target: T1, A1 receptor (Rattus norvegicus, UniProt P25099); test: biochemical; conditions: for Ki: Schild analysis, A1 receptor mediated inhibition of adenylate cyclase; for Adenylate cyclase A2 /A1: ratio of A2 Ki to A1 Ki
T1 sequence (P25099 1-326): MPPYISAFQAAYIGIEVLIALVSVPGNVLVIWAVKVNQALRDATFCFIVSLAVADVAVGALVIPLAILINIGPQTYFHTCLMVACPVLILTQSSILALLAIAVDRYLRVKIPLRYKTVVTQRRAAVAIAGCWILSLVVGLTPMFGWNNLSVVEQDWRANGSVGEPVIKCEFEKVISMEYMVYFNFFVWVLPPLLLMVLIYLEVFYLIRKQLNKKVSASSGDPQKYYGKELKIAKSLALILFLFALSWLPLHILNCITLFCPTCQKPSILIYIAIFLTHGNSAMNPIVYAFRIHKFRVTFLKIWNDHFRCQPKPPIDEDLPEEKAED
Procedure: The A1 receptor mediated inhibition of adenylate cyclase activity was measured by a modification of the procedure of Londos et al. (Proc. Natl. Acad. Sci. 75: 5362, 1978). Membrane protein (10-15 μg) was added to a reaction mixture containing a final concentration of 25 mM Tris-HCl (pH 7.4), 2 mM MgCl2 50 μM ATP, 50 μM cAMP, 1 mM dithiothreitol, 0.25 mg/ml BSA, 1 IU/ml adenosine deaminase, 5 mM creatine phosphate, 0.2 mg/ml creatine phosphokinase, 80 mM NaCl, [α^32 P]ATP (1.5 c 10^-6 DPM) and 100M GTP in 100 μl final volume. Incubations were carried out for 10 minutes at 24° C.
as §1

[2] = biological target: T2, adenosine receptor sites on guinea pig cortical membranes (Cavia porcellus, UniProt P47745); test: Adenosine Receptor Binding Assay, inhibition of specific [^3 H]-cyclohexyladenosine ([^3 H]CHA) binding; conditions: 4 nM [^3 H]CHA, 120 minutes at 23° C.
T2 sequence (P47745 1-326): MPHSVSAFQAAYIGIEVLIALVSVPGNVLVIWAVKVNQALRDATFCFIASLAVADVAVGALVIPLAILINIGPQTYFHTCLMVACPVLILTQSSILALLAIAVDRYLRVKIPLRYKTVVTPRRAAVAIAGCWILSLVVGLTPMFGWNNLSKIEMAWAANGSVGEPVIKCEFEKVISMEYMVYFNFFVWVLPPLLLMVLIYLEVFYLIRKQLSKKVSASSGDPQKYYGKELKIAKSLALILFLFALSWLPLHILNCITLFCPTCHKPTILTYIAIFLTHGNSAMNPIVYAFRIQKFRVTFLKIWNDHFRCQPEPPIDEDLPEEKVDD
Procedure: Adenosine Receptor Binding Assay. The potency of 8-arylxanthine compounds to inhibit the specific binding of [^3 H]-cyclohexyladenosine ([^3 H]CHA) to adenosine receptor sites on guinea pig cortical membranes was examined using standard in vitro ligand binding techniques. […] Briefly, guinea pig cortical tissue was homogenized in ice cold 50 mM Tris HCl buffer (pH 7.4) using a Brinkman Polytron. The homogenate was centrifuged at 48,000 x g for 10 minutes and the resulting tissue pellet was suspended in fresh cold buffer to yield a tissue concentration of 10 mg (wet weight)/ml. This tissue suspension was incubated for 30 minutes at 37° C. in the presence of adenosine deaminase (0.2 I.U./mg tissue). Following this incubation, the tissue suspension was centrifuged as before and the resulting pellet was suspended in fresh buffer at a concentration of 7-10 mg tissue (wet weight)/ml. Inhibition of the specific binding of [^3 H]CHA (New England Nuclear; 25 Ci/mmol) was examined in a total volume of 2 ml containing 50 mM Tris HCl, 7-10 mg of cortical tissue (1 ml of tissue suspension), 4 nM [^3 H]CHA and various concentrations of the test compounds. Nonspecific binding was determined in the presence of 10^-5 M 2-chloroadenosine. The binding reaction was carried out for 120 minutes at 23° C. and was terminated by vacuum filtration over Whatman GF/B filters using a Brandel M-48R Cell Harvester. The filters were washed 3 times with 3 ml of cold buffer and placed in scintillation vials in a Beckman LS 3801 scintillation counter. Dose-inhibition curves were generated with 10-12 concentrations of the test compound using triplicate incubations. The inhibition constants (Ki value) were calculated using EBDA, a log-logit iterative curve fitting program (McPhearson, Comput. Prog. Biomed. 107:220, 1983).

[3] = Solubility (mg/ml) 37° C.
animals = conditions: in vivo; cited from earlier work
adenosine (A1) receptor = conditions: cited from earlier work
[4] = 50 percent inhibition of the NECA-induced depression of force, read-out: NECA - Depressed Langendorff Heart TC50 Force
[5] = 50 percent inhibition of the NECA-induced depression of rate, read-out: NECA - Depressed Langendorff Heart TC50 Rate

Row | Compound | selectivity after introduction of the sulfonyl group (adenosine receptors) | potency relative to 8-phenyltheophylline (guinea pig thymocytes) | IC50 [1, 4] | IC50 [1, 5] | NECA - Depressed Langendorff Heart Force/Rate [1] | Ki (A2 receptor) | Ki (A1 receptor) | Adenylate cyclase A2 /A1 (A1 receptor) | Ki [2] | solubility [3] | overt activity in animals (animals) | force and rate properties / effect on force and rate of contraction (in words) ([1]; NECA depressed Langendorff heart, guinea pigs) | selectivity toward A1 adenosine receptor (adenosine (A1) receptor)
1 | Cn1c(=O)c2[nH]c(-c3ccc(S(=O)(=O)O)cc3)nc2n(C)c1=O [(II), 8-[4-sulfophenyl]-theophylline] | decrease in selectivity | 3 fold | – | – | – | – | – | – | – | – | – | – | –
2 | Cl.Cn1c(=O)c2[nH]c(-c3ccc(C(=N)N)cc3)nc2n(C)c1=O.O [Me Me H C(NH)NH2, 1,3-Dimethyl-8-(4-amidinophenyl)xanthine hydrochloride hydrate] | – | – | 2010 nM | 15600 nM | 0.13 | 523 nM | 244 nM | 2.1 | 1140 nM | – | – | – | –
3 | CNC(=N)c1ccc(-c2nc3c([nH]2)c(=O)n(C)c(=O)n3C)cc1 [Me Me H C(NH)NHMe, 1,3-Dimethyl-8-(4-N-methylamidinophenyl)xanthine hydrochloride hydrate] | – | – | 3640 nM | 18400 nM | 0.20 | – | – | – | 1840 nM | – | – | – | –
4 | CCCn1c(=O)c2[nH]c(-c3ccc(Cl)cc3N)nc2n(CCC)c1=O [PACPX, reference compound] | – | – | 1110 nM | 180 nM | 6.17 | 421 nM | 12.6 nM | 33.4 | 45 nM | < 0.4 µg/mL | little overt activity in animals | unfavorable force and rate properties | selective toward A1 --adenosine receptor
5 | CCCn1c(=O)c2[nH]c(-c3ccc(O)c(CN(C)C)c3)nc2n(CCC)c1=O [Pr Pr CH2 NMe2 OH, 1,3-Dipropyl-8-(3-N,N-dimethylaminomethyl-4hydroxyphenyl)xanthine hydrochloride hydrate] | – | – | 1490 nM | 2060 nM | 0.72 | 664 nM | 88.7 nM | 7 | 169 nM | 25000 µg/mL | – | – | –
6 | CCCn1c(=O)c2[nH]c(-c3ccc(C(=N)N)cc3)nc2n(CCC)c1=O [Pr Pr H C(NH)NH2, 1,3-Dipropyl-8-(4-amidinophenyl)xanthine hydrochloride hemi-hydrate] | – | – | 1400 nM | 7030 nM | 0.20 | 309 nM | 9.7 nM | 31.9 | 81 nM | 3000 µg/mL | – | – | –
7 | CCCn1c(=O)c2[nH]c(-c3ccc(C(=N)NC)cc3)nc2n(CCC)c1=O [Pr Pr H C(NH)NHMe, 1,3-Dipropyl-8-(4-N-methylamidinophenyl)xanthine hydrochloride hydrate] | – | – | 1470 nM | 3770 nM | 0.39 | 140 nM | 12 nM | 11.7 | 129 nM | 1000 µg/mL | – | – | –
8 | CCCn1c(=O)c2[nH]c(-c3ccc(CN)cc3)nc2n(CCC)c1=O.Cl.O [Pr Pr H CH2 NH2, 1,3-Dipropyl-8-(4-aminomethylphenyl)xanthine hydrochloride hydrate] | – | – | 570 nM | 2000 nM | 0.28 | 432 nM | 16.3 nM | 26 | 66.8 nM | 500 µg/mL | – | – | –
9 | CCCn1c(=O)c2[nH]c(-c3ccc(C(=O)OCC)cc3)nc2n(CCC)c1=O [Pr Pr H COOEt, 1,3-Dipropyl-8-(4-carboethoxyphenyl)xanthine] | – | – | 4780 nM | 7840 nM | 0.61 | 529 nM | 26.9 nM | 20 | 423 nM | – | – | – | –
10 | CCCn1c(=O)c2[nH]c(-c3ccc(NC(=O)N(C)C)cc3)nc2n(CCC)c1=O [Pr Pr H NHC(=O)NMe2, 1,3-Dipropyl-8-(4-N,N-dimethylureidophenyl) xanthine] | – | – | 360 nM | 980 nM | 0.61 | 131 nM | – | – | 86 nM | 80 µg/mL (≈ 201 µM) | – | – | –
11 | CCCn1c(=O)c2[nH]c(-c3cccc(OCC(O)CO)c3)nc2n(CCC)c1=O (stereo not shown) [Pr Pr OCH2 (CH2 OH)2 H, 1,3-Dipropyl-8-[3-(2,3-dihydroxypropyloxy)phenyl]xanthine] | – | – | 490 nM | 1040 nM | 0.47 | – | – | – | – | 250 µg/mL (≈ 621 µM) | – | – | –
